Values joined by “and” are separate entries in the source; they are usually repeats but may differ in a detail not shown here. Equal entries are not always repeated. “Also recorded” adds a separate entry of the source. Where two headings read alike, the source gives them in different places.
Legend:
[1] = cited from earlier work; for FLUX (Feldman 1969) / FLUX (SCHAEFER 1979): human skin; for flux rates in comparison to the corticosterones: Table I
[2] = Protocol: To obtain maximum flux rates aliquots of the reservoir were analyzed during a period of 8 hours on day 2, day 3, and day 7.
[3] = cited from earlier work; for oral effectiveness: "first pass" inactivation
[4] = In vitro mouse skin permeation from patch, Franz diffusion cell; settings: for Rate of permeation: 2.4 sq. cm., estradiol value is a minimum not corrected for saturation effects, maximum flux expected nearly 2-3 times greater
Protocol: A typical sustained release for the release of levonorgestrel is: a 9.4 square centimeter of Johnson and Johnson Rayon™ First Aid Tape-Hypo-Allergenic--1 inch wide, 1.5 inch long for the impervious backing and to form the adhesive layer and a 2 square centimeter ID--2.25 square centimeter OD--2/3 mm thick teflon ring. […] Microspheres are prepared from the levonorgestrel and the poly-L(-)lactide as follows: Prepare a 2.5 percent wt/v solution of polyvinyl alcohol (PVA) #523 in one liter of distilled water; prepare a 15 percent wt/v solution of poly-L-(-)lactide, approx. 1 R.S.V. in 300 ml of reagent grade methylene chloride; mix 5 ml of the poly-L-(-)lactide solution, 10 ml methylene chloride and 5 grams of levonorgestrel to form a uniform slurry; take the 1 l of PVA solution and pour it into a 2 l stainless steel beaker. Stir at approx. 1000 RPM (1550×0.7) and heat at low temperature, (approx. 35° C.); add levonorgestrel slurry. Heat approx. 4 hours, then turn off heat and stirrer; wet sieve off the 45-106 um size fraction; and dry in vacuum oven at room temperature and recover the solid microspheres. Then 45 mg of these solid microspheres are mixed with 85 mg of Vaseline or a viscous vehicle (trademark of Chesebrough-Pond's, Inc.). The Teflon ring is placed in the center on the adhesive side of the tape and the Vaseline mixture is then spread to uniform thickness iside the Teflon ring. The porous membrane is then placed over the mixture of Vaseline to form a complete patch. An estradiol patch is similarly prepared using 70 mg of Vaseline with 38 mg of microspheres containing estradiol.
In Vitro mouse skin permeation studies were conducted with a 2.4 square centimeter patch which was placed in a 20 mm diameter water jacketted Franz diffusion cell mounted on a 9-cell Drive Unit/Mounting Assembly. The water jacket temperature of the cells was controlled by a bath and water circulator which is maintained at 37° C. This system is widely used in the pharmaceutical industry for measuring the permeability of percutaneous patches across animal and cadaver skins.
Release of each drug was determined as a function of time by analysis of aliquots of the contents of the reservoir in a Waters High Pressure Liquid Chromatograph (HPLC) using a u Bondpak C-18 radial pack column with a mobile phase of 60% ethanol in water. The steroids were measured in a uv detector at a wavelength of 280 nm for estradiol and 254 for levonorgestrel.
Pieces of full thickness abdominal skin were freshly excised from a 6 week old male nude mice and mounted individually on the Franz diffusion cell. Before use, the skins were washed three times in 200 ml normal saline to remove extraneous and other soluble material. The face membrane of the system was applied to the stratum corneum side of the skin. The skin permeation profile of each drug was followed by removing the liquid from the receptor compartment for assay at the appropriate intervals. The compartment was then filled with fresh saline and the permeation continued. Release of the drug was monitored in a liquid chromatograph (HPLC).

[5] = cited from earlier work
[6] = implantable drug delivery systems; cited from earlier work
[7] = cited from earlier work; remark: listed apart in the source

For C[C@]12C[C@H](O)[C@H]3[C@@H](CCC4=CC(=O)CC[C@@]43C)[C@@H]1CC[C@@H]2C(=O)CO [Corticosterone], the “FLUX (Feldman 1969)” value [1] is listed as 7.5 × 10^-12 MOLES/CM^2 HR.
For C[C@]12CC[C@@H]3c4ccc(O)cc4CC[C@H]3[C@@H]1CC[C@@H]2O [Estradiol, 17β estradiol], the “flux rates in comparison to the corticosterones” value [1] is listed as “fairly high”, the “FLUX (Feldman 1969)” value [1] is listed as 8.2 × 10^-11 MOLES/CM^2 HR and the “FLUX (SCHAEFER 1979)” value [1] is listed as 5.8 × 10^-10 MOLES/CM^2 HR and 4.6 × 10^-10 MOLES/CM^2 HR. The “Estimated size needed to deliver required dose” value [2] was 5, the oral effectiveness [3] was “limited oral effectiveness” and the permeation rate ([4]; 2.4 square centimeter estradiol patch, per day, mass unit not given) was 5. The “delivery across freshly excised mouse skin” value ([4]; 2.4 square centimeter patch (DermaPatch)) was 5 micrograms/day, the Minimum dose absorbed ([4]; Table 3, 2.4 sq. cm. patch) was > 5.2 mcg./24 hr and the Rate of permeation ([4]; Table 3) was > 0.09 mcg./sq. cm./hr. It also gave a mouse skin permeation ([4]; day 1) of 6 Micrograms/2.4 sq. cm, a mouse skin permeation ([4]; day 2) of 10 Micrograms/2.4 sq. cm and a mouse skin permeation ([4]; day 3) of 16 Micrograms/2.4 sq. cm.
In the case of C[C@]12CC[C@@H]3c4ccc(O)cc4CC[C@H]3[C@@H]1C[C@@H](O)[C@@H]2O [Estriol], the “FLUX (SCHAEFER 1979)” value [1] is given as 7.8 × 10^-11 MOLES/CM^2 HR.
For C[C@]12CCC(=O)C=C1CC[C@@H]1[C@@H]2[C@@H](O)C[C@@]2(C)[C@H]1CC[C@]2(O)C(=O)CO [Hydrocortisone], the “FLUX (Feldman 1969)” value [1] is listed as 2.5 × 10^-11 MOLES/CM^2 HR, the “increase in the penetration of hydrocortisone” value ([5]; modified skin, when the skin is occluded) is listed as “tenfold increase” and the “penetration of hydrocortisone when the skin is occluded” value ([5]; through modified skin, occluded) is listed as 10%. The “penetration of hydrocortisone before increase” value ([5]; through modified skin, starting value, not occluded) was 1%.
For C#C[C@]1(O)CC[C@H]2[C@@H]3CCC4=CC(=O)CC[C@@H]4[C@H]3CC[C@@]21CC [Levonorgestrel, levonorgestrel], the “dose sufficient to prevent fertility” value [6] is given as 30 micrograms per day, the “Estimated size needed to deliver required dose” value ([2]; dose required 20 (levonorgestrel) or 25 (estradiol) mcg./day) is given as 0.5 sq. cm and the “estimated delivery from a patch” value ([2]; patch surface area 0.5 square centimeters) is given as 20 micrograms per day. The “estimated delivery from a patch” value ([2]; patch surface area 5 square centimeters) was 2.5 milligrams per day, the Minimum dose absorbed [4] was 43-160 mcg./24 hr and the “delivery across freshly excised mouse skin” value [4] was 43 micrograms/day. For the same compound, the Rate of permeation ([4]; Table 3) was 0.75-2.8 mcg./sq. cm./hr, the “skin permeation / release profile” value ([4]; abdominal skin of nude mouse) was “zero order release; also recorded: zero order rate” and the “average rate of release (maximum flux rates)” value ([4]; aliquots during 8 hours on day 2, day 3 and day 7, 2.4 square centimeter patch) was 6.7 micrograms per hour. For the same compound, the mouse skin permeation ([4]; day 1) was “about 25 Micrograms/2.4 sq. cm”, the mouse skin permeation ([4]; day 2) was 90 Micrograms/2.4 sq. cm and the mouse skin permeation ([4]; day 3) was 140 Micrograms/2.4 sq. cm. It also gave a mouse skin permeation ([4]; day 7) of 270 Micrograms/2.4 sq. cm, a mouse skin permeation ([4]; day 8) of 375 Micrograms/2.4 sq. cm and a mouse skin permeation ([4]; day 9) of 405 Micrograms/2.4 sq. cm. The mouse skin permeation ([4]; day 10) was 570 Micrograms/2.4 sq. cm, the mouse skin permeation ([4]; day 11) was 505 Micrograms/2.4 sq. cm and the mouse skin permeation ([4]; day 14) was 590 Micrograms/2.4 sq. cm. For the same compound, the “rate of skin permeation” value ([4]; during 24 hours, membrane area 2.4 square centimeters) was “approximately 43 ug/day” and the “average rate of release (maximum flux rates)” value ([4]; from 6.7 micrograms per hour, days 2, 3 and 7) was 160 micrograms per day/2.4 square/centimeters.
For CC(=O)[C@H]1CC[C@H]2[C@@H]3CCC4=CC(=O)CC[C@]4(C)[C@H]3CC[C@]12C [Progesteone, progesterone], the “flux rates in comparison to the corticosterones” value [1] is listed as “fairly high”, the “FLUX (Feldman 1969)” value [1] is listed as 3.4 × 10^-11 MOLES/CM^2 HR and the “accumulation in subcutaneous tissue and underlying muscle” value ([7]; in vivo) is listed as “more pronounced with percutaneous than with subcutaneous administration”.
For C#C[C@]1(O)CC[C@H]2[C@@H]3CCc4cc(O)ccc4[C@H]3CC[C@@]21C [ethinylestradiol], the oral effectiveness [3] is listed as “active orally” and the “inactivation by the liver and other tissues” value ([3]; oral) is listed as “very low”.
For CN(Cc1cnc2nc(N)nc(N)c2n1)c1ccc(C(=O)N[C@@H](CCC(=O)O)C(=O)O)cc1 [methotrexate], the “reduction of the duration of the reservoir” value ([7]; irritation increases epidermal turnover) is given as ~50%.
For CN1CCCC1c1cccnc1 (stereo not shown) [nicotine], the “period maintained in the reservoir” value ([7]; compound which very rapidly penetrates and diffuses) is listed as 3 to 4 days.
In the case of estrogen, the “accumulation in subcutaneous tissue and underlying muscle” value ([7]; percutaneous versus subcutaneous administration) is listed as “more pronounced with percutaneous than with subcutaneous administration”.

Source: US4687481A, “Transdermal drug delivery system” (priority 1986, dated 1987)
